Values quoted from earlier work as cited in US20060057620A1, “Treatment of HIV infection” (priority 2004, published 2006).

Tested on: circulating T-cells
Conditions: FIG. 1

## alemtuzumab
After a single dose
  time to full recovery of T-cells: ≥ 3 months
Single dose
  killing of circulating T-cells (T-cell depletion): able to kill all circulating T-cells
